Assays:
D(3) dopamine receptor [1] = molecular target: T1, D(3) dopamine receptor (Rattus norvegicus, UniProt P19020); design: species or system Tissue
D(1A) dopamine receptor [2] = molecular target: T2, D(1A) dopamine receptor (Rattus norvegicus, UniProt P18901)
[3] = molecular target: T3, Muscarinic acetylcholine receptor M1 (Rattus norvegicus, UniProt P08482); test: biochemical; assay type: tissue-based, Frontal cortex
T3 sequence (P08482 whole entry): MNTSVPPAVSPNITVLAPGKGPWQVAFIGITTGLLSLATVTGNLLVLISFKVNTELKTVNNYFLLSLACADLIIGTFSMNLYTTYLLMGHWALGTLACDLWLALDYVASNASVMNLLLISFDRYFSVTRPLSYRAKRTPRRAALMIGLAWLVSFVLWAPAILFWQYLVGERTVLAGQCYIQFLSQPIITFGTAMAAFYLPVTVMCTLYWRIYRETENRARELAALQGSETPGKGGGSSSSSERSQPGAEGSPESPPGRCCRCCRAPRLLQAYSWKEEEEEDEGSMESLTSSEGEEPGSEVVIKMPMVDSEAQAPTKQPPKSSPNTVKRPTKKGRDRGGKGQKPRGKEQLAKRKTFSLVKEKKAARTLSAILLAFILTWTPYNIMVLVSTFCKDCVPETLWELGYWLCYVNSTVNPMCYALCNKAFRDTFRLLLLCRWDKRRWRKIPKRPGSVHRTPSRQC

Rattus norvegicus [4] = species on record: Rattus norvegicus; settings: in vivo
Rattus norvegicus [5] = species on record: Rattus norvegicus; settings: in vivo; remark: listed apart in the source
[6] = molecular target: T4, Adrenergic receptor alpha-2 (Rattus norvegicus, UniProt P22086+P19328+P22909); assay type: tissue-based, Frontal cortex
T4 sequence (P22086 whole entry): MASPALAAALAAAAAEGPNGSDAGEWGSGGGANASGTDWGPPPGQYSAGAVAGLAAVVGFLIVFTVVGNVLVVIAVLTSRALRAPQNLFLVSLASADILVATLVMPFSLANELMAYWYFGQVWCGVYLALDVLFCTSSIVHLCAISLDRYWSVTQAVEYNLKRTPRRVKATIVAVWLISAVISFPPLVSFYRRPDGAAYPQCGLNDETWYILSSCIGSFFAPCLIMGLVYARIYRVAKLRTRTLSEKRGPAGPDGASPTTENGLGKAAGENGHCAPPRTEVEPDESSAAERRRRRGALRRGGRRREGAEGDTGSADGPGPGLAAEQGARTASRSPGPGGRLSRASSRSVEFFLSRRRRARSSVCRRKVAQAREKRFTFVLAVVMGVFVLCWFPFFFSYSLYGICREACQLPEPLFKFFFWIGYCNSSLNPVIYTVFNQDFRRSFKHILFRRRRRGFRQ
T4 sequence (P19328 whole entry): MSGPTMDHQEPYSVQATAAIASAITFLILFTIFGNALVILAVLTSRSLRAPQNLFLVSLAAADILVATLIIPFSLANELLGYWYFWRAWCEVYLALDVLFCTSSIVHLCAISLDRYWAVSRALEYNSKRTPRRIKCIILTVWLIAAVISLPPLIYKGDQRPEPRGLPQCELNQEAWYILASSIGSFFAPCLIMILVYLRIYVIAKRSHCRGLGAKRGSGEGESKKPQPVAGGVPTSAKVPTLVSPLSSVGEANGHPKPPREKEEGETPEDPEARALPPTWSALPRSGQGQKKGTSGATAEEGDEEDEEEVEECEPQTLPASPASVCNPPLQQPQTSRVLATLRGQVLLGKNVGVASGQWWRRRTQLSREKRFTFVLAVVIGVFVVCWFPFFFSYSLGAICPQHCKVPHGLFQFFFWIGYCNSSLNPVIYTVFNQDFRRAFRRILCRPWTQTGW
T4 sequence (P22909 whole entry): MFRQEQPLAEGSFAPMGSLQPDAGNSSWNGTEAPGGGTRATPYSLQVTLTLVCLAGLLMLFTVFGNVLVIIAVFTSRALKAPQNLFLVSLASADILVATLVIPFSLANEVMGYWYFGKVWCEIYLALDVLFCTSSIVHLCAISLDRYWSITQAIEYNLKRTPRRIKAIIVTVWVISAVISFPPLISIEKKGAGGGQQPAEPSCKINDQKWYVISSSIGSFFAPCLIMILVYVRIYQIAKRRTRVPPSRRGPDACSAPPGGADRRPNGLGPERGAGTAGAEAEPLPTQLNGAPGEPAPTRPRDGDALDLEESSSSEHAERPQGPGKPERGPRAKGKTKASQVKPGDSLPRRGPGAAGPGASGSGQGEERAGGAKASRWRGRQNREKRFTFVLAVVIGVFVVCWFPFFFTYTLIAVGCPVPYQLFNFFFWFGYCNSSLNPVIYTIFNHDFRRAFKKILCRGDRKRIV

Rattus norvegicus [7] = species on record: Rattus norvegicus; settings: in vivo; remark: listed apart in the source
Mus musculus [8] = species on record: Mus musculus; test: animal or person; assay type: functional; settings: sc, route subcutaneous
Rattus norvegicus [9] = species on record: Rattus norvegicus; settings: in vivo; remark: listed apart in the source
Mus musculus [10] = species on record: Mus musculus; test: animal or person; assay type: functional; settings: po
[11] = molecular target: T5, Adrenergic receptor alpha-1 (Rattus norvegicus, UniProt P15823+P23944+P43140); assay type: tissue-based, Frontal cortex
T5 sequence (P15823 whole entry): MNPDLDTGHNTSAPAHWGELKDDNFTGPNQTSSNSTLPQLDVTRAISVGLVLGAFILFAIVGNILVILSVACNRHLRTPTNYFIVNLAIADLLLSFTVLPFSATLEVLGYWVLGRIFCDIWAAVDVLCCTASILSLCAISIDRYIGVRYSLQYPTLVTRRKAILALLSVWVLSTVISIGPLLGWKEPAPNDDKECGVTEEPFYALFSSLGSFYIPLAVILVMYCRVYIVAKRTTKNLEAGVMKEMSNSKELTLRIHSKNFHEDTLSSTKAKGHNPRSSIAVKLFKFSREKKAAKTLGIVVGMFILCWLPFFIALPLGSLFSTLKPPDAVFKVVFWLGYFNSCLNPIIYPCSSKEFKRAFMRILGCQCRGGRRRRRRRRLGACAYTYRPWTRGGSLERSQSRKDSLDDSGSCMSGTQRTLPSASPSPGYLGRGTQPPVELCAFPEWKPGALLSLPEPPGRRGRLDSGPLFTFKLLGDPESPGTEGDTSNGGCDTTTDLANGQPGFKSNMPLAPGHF
T5 sequence (P23944 whole entry): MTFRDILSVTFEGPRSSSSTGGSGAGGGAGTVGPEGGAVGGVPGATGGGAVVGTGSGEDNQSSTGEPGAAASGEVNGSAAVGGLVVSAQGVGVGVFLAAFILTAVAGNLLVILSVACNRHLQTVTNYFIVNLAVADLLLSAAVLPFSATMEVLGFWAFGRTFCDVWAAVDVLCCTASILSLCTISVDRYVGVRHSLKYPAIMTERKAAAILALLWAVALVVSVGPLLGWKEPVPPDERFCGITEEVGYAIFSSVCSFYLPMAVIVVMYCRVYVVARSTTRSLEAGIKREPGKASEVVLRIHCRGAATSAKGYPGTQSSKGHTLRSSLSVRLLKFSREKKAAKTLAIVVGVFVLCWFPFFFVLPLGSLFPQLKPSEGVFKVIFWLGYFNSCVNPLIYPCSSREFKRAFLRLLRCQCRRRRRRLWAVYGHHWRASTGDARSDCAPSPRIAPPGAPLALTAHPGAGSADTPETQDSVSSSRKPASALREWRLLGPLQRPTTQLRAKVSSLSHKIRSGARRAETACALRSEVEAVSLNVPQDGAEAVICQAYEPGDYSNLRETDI
T5 sequence (P43140 whole entry): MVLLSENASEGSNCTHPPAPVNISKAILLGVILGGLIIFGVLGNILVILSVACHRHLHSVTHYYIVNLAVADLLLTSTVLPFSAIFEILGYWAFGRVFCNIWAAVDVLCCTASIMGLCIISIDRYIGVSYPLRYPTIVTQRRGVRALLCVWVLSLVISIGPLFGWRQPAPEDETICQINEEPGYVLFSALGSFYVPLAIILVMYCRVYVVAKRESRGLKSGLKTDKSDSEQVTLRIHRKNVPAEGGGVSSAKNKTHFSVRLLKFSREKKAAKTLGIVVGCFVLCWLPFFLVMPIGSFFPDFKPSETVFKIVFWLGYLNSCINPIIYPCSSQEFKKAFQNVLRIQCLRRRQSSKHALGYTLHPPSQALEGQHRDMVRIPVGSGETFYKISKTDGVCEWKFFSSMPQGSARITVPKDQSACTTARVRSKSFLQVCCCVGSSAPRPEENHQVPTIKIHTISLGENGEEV

Rattus norvegicus [12] = species on record: Rattus norvegicus; settings: in vivo; remark: listed apart in the source
Mus musculus [13] = species on record: Mus musculus; test: animal or person; assay type: functional; settings: dose 7.9 mg/kg, route oral
Rattus norvegicus [14] = species on record: Rattus norvegicus; settings: in vivo; remark: listed apart in the source
Mus musculus [15] = species on record: Mus musculus; test: animal or person; assay type: functional; settings: sc, dose 0.19 mg/kg, route subcutaneous
Mus musculus [16] = species on record: Mus musculus; test: animal or person; assay type: functional; settings: sc, route subcutaneous; remark: listed apart in the source
Rattus norvegicus [17] = species on record: Rattus norvegicus; settings: in vivo; remark: listed apart in the source
Rattus norvegicus [18] = species on record: Rattus norvegicus; settings: in vivo; remark: listed apart in the source
Rattus norvegicus [19] = species on record: Rattus norvegicus; settings: in vivo; remark: listed apart in the source
Mus musculus [20] = species on record: Mus musculus; test: animal or person; assay type: functional; settings: route oral
[21] = molecular target: T6, 5-hydroxytryptamine receptor 2A (Rattus norvegicus, UniProt P14842); test: biochemical
T6 sequence (P14842 whole entry): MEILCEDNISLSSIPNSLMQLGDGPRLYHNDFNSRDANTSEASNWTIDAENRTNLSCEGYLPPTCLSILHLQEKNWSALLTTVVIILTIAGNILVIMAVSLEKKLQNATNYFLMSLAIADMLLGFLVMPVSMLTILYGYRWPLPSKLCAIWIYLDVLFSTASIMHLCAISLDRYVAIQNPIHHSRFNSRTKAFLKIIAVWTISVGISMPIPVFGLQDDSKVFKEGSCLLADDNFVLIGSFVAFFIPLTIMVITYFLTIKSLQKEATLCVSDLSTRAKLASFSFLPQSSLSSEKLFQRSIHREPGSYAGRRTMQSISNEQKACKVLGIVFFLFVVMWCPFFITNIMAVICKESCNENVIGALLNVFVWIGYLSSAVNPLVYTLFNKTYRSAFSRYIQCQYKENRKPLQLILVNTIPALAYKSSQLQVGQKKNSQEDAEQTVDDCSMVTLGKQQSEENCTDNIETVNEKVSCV

[22] = molecular target: T6, 5-hydroxytryptamine receptor 2A; test: biochemical; assay type: tissue-based, Cerebral cortex
Histamine H1 receptor = Histamine H1 receptor (Rattus norvegicus, UniProt P31390); test: biochemical; assay type: tissue-based, Frontal cortex
Sequence of Histamine H1 receptor (P31390 whole entry): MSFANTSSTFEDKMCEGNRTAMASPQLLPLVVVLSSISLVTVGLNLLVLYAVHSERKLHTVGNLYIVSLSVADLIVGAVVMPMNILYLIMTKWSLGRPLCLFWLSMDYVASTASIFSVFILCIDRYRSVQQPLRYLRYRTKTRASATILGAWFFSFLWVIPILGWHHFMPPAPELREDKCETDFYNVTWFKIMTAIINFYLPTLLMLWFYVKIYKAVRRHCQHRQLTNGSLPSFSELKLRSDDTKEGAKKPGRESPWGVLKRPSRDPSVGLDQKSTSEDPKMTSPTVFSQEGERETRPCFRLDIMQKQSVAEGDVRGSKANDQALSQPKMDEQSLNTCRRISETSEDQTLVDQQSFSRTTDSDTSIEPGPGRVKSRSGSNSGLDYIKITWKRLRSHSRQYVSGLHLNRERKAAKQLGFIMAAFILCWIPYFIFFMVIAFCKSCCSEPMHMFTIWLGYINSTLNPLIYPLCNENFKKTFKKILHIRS

D(3) dopamine receptor [23] = molecular target: T1, D(3) dopamine receptor; design: species or system Tissue; remark: listed apart in the source
D(3) dopamine receptor [24] = molecular target: T1, D(3) dopamine receptor; design: species or system Tissue; remark: listed apart in the source
Mus musculus [25] = species on record: Mus musculus; test: animal or person; assay type: functional; settings: sc, dose 0.83 mg/kg, route subcutaneous
Mus musculus [26] = species on record: Mus musculus; test: animal or person; assay type: functional; settings: sc
Mus musculus [27] = species on record: Mus musculus; test: animal or person; assay type: functional; settings: sc, dose 1.5 mg/kg, route subcutaneous
D(1A) dopamine receptor [28] = molecular target: T2, D(1A) dopamine receptor; remark: listed apart in the source

T1 sequence (P19020 whole entry): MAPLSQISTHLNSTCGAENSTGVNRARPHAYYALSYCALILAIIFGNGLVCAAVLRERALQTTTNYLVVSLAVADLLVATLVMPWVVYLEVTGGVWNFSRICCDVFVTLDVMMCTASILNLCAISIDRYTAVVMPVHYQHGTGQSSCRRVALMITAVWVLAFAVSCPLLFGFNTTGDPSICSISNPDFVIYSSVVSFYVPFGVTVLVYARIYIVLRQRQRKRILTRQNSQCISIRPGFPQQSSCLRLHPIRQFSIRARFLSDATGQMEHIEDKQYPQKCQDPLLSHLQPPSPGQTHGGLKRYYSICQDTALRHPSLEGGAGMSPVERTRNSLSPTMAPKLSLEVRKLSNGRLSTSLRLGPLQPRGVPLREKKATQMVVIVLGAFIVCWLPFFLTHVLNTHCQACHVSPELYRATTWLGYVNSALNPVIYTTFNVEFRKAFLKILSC
T2 sequence (P18901 whole entry): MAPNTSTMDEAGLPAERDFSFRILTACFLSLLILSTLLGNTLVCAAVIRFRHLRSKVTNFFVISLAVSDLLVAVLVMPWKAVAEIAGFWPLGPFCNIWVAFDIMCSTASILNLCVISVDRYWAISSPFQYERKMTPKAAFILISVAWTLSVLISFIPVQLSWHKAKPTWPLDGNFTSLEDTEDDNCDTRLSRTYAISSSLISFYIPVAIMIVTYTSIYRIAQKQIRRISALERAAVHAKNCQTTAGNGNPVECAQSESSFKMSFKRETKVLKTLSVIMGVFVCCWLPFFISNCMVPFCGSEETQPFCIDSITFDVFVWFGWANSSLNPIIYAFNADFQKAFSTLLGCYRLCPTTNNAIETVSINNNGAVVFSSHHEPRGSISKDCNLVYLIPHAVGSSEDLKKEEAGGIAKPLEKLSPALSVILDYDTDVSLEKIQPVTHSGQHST

| Ki (D(3) dopamine receptor [1]) [nM] | Ki (D(1A) dopamine receptor [2]) [nM] | Ki [3] [nM] | Ki [11] [nM] | Ki [21] [nM] | SMILES | further results |
| --- | --- | --- | --- | --- | --- | --- |
| 0.4 | 1.9 | – | – | – | CN1CCN([C@H]2Cc3ccccc3Sc3ccc(Cl)cc32)CC1 | – |
| 10 | 20 | – | – | 23 | OCCN1CCN(C2Cn3cccc3Sc3ccc(Br)cc32)CC1 (racemic) | – |
| 58 | 53 | – | – | 16 | CN1CCCN(C2Cn3cccc3Sc3ccc(Cl)cc32)CC1 (racemic) | Ki [22]: 53.7 nM |
| 4.5 | 18.2 | – | – | 5.8 | CCN1CCN(C2Cn3cccc3Sc3ccc(Cl)cc32)CC1 (racemic) | – |
| – | 72 | 6300 | 2.9 | 7.1 | OCCN1CCN(C2Cn3cccc3Sc3ccc(F)cc32)CC1 (racemic) | Ki (Histamine H1 receptor): 7.1 nM; Ki (D(3) dopamine receptor [23]): 13 nM; Ki (D(3) dopamine receptor [24]): 13.2 nM; Ki [22]: 74.1 nM |
| 3.6 | 27 | – | – | 8.8 | OCCN1CCN(C2Cn3cccc3Sc3ccc(Cl)cc32)CC1 (racemic) | – |
| – | 14 | – | – | 12 | CN1CCN(C2Cn3cccc3Sc3ccc(Br)cc32)CC1 (racemic) | – |
| – | 31 | 2340 | 0.4 | 4.3 | CCN1CCN(C2Cn3cccc3Sc3ccc(F)cc32)CC1 (racemic) | Ki (Histamine H1 receptor): 4.3 nM; Ki (D(3) dopamine receptor [23]): 18 nM; Ki (D(3) dopamine receptor [24]): 18.2 nM |
| 7.4 | 14 | – | – | 23 | CCN1CCN(C2Cn3cccc3Sc3ccc(Br)cc32)CC1 (racemic) | – |
| – | – | 2270 | 18.8 | – | CN1CCN([C@@H]2Cn3cccc3Sc3ccccc32)CC1 (stereo in doubt; (+)-6a) | ED50 at […] (Mus musculus [25]): 2.8 µmol/kg; ED50 (Mus musculus [26]): 269 µmol/kg; Ki (Histamine H1 receptor): 9.5 nM; ED50 at […] (Mus musculus [27]): 5.2 µmol/kg |
| – | – | – | 12 | – | CN1CCN([C@H]2Cn3cccc3Sc3ccc(F)cc32)CC1 (stereo in doubt; (+)-6b) | – |
| – | – | > 10000 | 4.5 | – | CN1CCN([C@H]2Cn3cccc3Sc3ccc(F)cc32)CC1 (stereo in doubt; (-)-6b) | – |
| – | – | – | – | – | CSc1ccc2c(c1)C(N1CCN(C)CC1)Cc1ccccc1S2 (stereo not given) [METITEPINE] | Ki (D(1A) dopamine receptor [28]): 2 nM |

| SMILES | Ki (D(3) dopamine receptor [1]) [nM] | Ki (D(1A) dopamine receptor [2]) [nM] | Ki [3] [nM] | Ki [11] [nM] | Ki [21] [nM] | further results |
| --- | --- | --- | --- | --- | --- | --- |
| CN1CCN([C@H]2Cn3cccc3Sc3ccc(Cl)cc32)CC1 | 1.85 | – | – | – | – | – |
| CN1CCN([C@@H]2Cn3cccc3Sc3ccc(Cl)cc32)CC1 | 110 | – | 287 | 0.82 | – | AUC (Rattus norvegicus [4]): 193.8; AUC (Rattus norvegicus [5]): 133.6; Ki [6]: 209 nM; AUC (Rattus norvegicus [7]): 163.4; ED50 (Mus musculus [8]): 0.24 µmol/kg; AUC (Rattus norvegicus [9]): 145.4; ED50 at […] (Mus musculus [10]): 115 µmol/kg; AUC (Rattus norvegicus [12]): 174.4; ED50 at […] (Mus musculus [13]): 19.5 µmol/kg; AUC (Rattus norvegicus [14]): 156.3; ED50 at […] (Mus musculus [15]): 0.48 µmol/kg; ED50 (Mus musculus [16]): 45 µmol/kg; AUC (Rattus norvegicus [17]): 179; AUC (Rattus norvegicus [18]): 20.35; AUC (Rattus norvegicus [19]): 133; ED50 (Mus musculus [20]): 14.3 µmol/kg |

— ChEMBL document CHEMBL1135802, “Pyrrolo[1,3]benzothiazepine-based atypical antipsychotic agents. Synthesis, structure-activity relationship, molecular modeling, and biological studies” (J Med Chem, 2002)
